“And” between values parts separate entries of the source, which are not always exact repeats. Equal entries are not always repeated. Where two headings read alike, the source gives them in different places.
Tests used:
[1] = Mouse plasma and brain pharmacokinetics, IV administration; assay type: in vivo; conditions: 5 mg/kg IV; for concentration at 0.25 h / concentration at 1 h / concentration at 3 h: male, C57BL/6, mouse, intravenous, 5 mg/kg
Method: IACUC-approved protocols and animal welfare regulations outlined in the “Guide for the Care and Use of Laboratory Animals” were both followed during the pharmacokinetic evaluation of all compounds. In vivo analysis was performed by Pharmaron (IP administration, Irvine, CA) and Sai Life (IV administration, Hinjewadi Pune, Pune, India).
Nine male C57BL/6 mice were administered intravenously (IV) with solution formulation of prodrug at 5 mg/kg dose (5 mL/kg) in 5% […], 5% Solutol HS-15, and 90% saline. Blood samples (∼60 μL) were collected under light isoflurane anesthesia from a set of three mice at 0.25, 1, and 3 h. Plasma was harvested by centrifugation of blood and stored at −70 ± 10 °C until analysis. Immediately after the collection of blood, brain samples were collected from each mouse at respective time points. Brain samples were homogenized using ice-cold phosphate-buffered saline (pH 7.4), and homogenates were stored below −70 ± 10 °C until analysis. The total homogenate volume was 3 times that of the brain weight. The plasma and brain concentration–time data of compounds 2i were used for the pharmacokinetic analysis. Plasma and brain samples were quantified by the fit-for-purpose LC-MS/MS method (LLOQ: 2.06 ng/mL for plasma and 5.16 ng/mL for brain).

Tsc1^± mice = assay: Acute epileptic mouse model, EEG recordings of seizures; assay type: in vivo
Method: All experiments were conducted in agreement with the requirements of the European Directive 2010/63/EU. Mice were housed in ventilated, light-tight, sound-isolated chambers under a standard 12:12 light/dark cycle (light on at […]) with food and water available ad libitum. C57BL/6J wild-type (Tsc1^+/+) females from Janvier Laboratories (France) were crossed with heterozygote Tsc1^± male mice with the genetic background B6;129S4-Tsc1^tm1.1Djk/Nci. The genotyping of pups issuing from this cross-breeding was performed on tail tissue samples at postnatal day P9. The study was conducted in Tsc1^± male mice at P14–16. Pups from at least three deliveries for each condition were studied to minimize the potential sampling bias.
The DQP derivative 2i was diluted in DMSO at a concentration of 100 mM before being added to 100 to 150 μL of saline solution and intraperitoneally injected in mice. Intraperitoneal injection was administered during the EEG recordings at three different concentrations: 7, 14, and 28 mg/kg to estimate the dose–response relationship.
Experiments were performed on postnatal days of P14 and P16 male Tsc1^± mice. Surgery was performed under isoflurane anesthesia and lidocaine analgesia. During recordings, the head was fixed to the frame of a stereotaxic apparatus by attached bars; animals were surrounded by a cotton nest and heated via a thermal pad (36.6–37.7 °C). A silver chloride reference electrode was placed in the cerebellum. EEG recordings were performed with nonanaesthetized head-restrained Tsc1^± mice. […] Recordings were analyzed offline using Clampfit (Molecular Devices, San Jose) and Origin (MicroCal, Northampton, MA) software. […] During EEG recordings, animals were monitored visually to determine the behavioral correlates of each electrographic epileptic discharge. […]

GluN1/GluN2C = GluN1/GluN2C (Rattus norvegicus, UniProt Q00961); set-up: GluN2B (NM_012574.1), GluN2C (NM_012575.3), and GluN2D (NM_022797.2) were provided by; expressed in transfected cells; host or cells: Xenopus laevis oocytes (cRNA injection); conditions: reproduced for comparison; cited from earlier work
GluN1/GluN2C, sequence (Q00961 20-1237, other chains not shown): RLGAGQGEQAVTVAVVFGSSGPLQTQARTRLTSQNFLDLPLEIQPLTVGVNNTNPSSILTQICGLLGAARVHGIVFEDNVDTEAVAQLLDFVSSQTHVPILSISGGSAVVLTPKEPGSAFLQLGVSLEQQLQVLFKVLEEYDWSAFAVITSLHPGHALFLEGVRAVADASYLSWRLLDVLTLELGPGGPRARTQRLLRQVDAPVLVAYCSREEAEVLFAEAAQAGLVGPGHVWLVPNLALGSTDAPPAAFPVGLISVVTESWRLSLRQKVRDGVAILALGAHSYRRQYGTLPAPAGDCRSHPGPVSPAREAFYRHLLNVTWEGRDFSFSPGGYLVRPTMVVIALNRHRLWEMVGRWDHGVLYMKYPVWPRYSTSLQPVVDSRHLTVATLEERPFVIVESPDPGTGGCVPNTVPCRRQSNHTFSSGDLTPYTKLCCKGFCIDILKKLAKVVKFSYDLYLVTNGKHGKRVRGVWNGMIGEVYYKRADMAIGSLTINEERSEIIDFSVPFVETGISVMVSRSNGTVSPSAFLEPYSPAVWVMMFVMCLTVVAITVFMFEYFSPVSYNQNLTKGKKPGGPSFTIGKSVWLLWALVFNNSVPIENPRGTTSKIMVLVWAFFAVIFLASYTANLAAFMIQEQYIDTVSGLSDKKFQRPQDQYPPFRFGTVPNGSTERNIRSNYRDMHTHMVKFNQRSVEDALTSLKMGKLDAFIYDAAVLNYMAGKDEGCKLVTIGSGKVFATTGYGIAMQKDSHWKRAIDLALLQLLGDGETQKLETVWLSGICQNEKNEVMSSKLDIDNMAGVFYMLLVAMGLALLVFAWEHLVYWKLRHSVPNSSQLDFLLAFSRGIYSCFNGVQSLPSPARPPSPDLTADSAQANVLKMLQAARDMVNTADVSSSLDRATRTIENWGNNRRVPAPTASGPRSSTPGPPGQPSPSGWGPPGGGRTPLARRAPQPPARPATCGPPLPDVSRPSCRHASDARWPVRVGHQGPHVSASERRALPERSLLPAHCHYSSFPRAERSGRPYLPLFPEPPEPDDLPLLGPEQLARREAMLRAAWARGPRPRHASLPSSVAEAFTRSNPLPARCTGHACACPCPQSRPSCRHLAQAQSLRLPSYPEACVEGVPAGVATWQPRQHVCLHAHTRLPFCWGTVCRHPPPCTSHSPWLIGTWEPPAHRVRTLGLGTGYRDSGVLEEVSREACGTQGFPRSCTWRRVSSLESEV

Question: For `O=C(O)CC(F)(F)C(=O)N1N=C(c2c(-c3ccc(Cl)cc3)c3ccccc3[nH]c2=O)CC1c1ccc(Cl)cc1` (stereo not shown) [2i], which “drop of plasma levels at 1 h” value [1] is on record?
Answer: ~10 fold

Question: What about the “brain calculated concentration, individual (Group 1-3)” value ([1]; 0.25 h) of the same compound?
Answer: 17.9 ng/g and 13.1 ng/g

Question: And the “brain calculated concentration, Mean” value ([1]; 0.25 h (15 min))?
Answer: 14 ng/g

Question: And the “plasma concentration, individual (Group 1-3)” value (from here on “plasma concentration”) ([1]; 0.25 hr)?
Answer: 585 ng/mL and 766 ng/mL

Question: And the “brain calculated concentration, individual (Group 1-3)” value ([1]; 1 h)?
Answer: BLQ and 6.18 ng/g

Question: What about the “plasma concentration” value ([1]; 1 hr) of the same compound?
Answer: 41.2 ng/mL and 101 ng/mL and 68.7 ng/mL

Question: What about the “brain calculated concentration, individual (Group 1-3)” value ([1]; 3 h) of the same compound?
Answer: BLQ

Question: And the “brain levels at 3 h” value ([1]; 3 h)?
Answer: BLQ

Question: And the “plasma concentration” value ([1]; 3 hr)?
Answer: 5.97 ng/mL and 10.2 ng/mL

Question: What about the concentration at 0.25 h ([1]; brain, 0.25 h (15 min), read-out: brain calculated concentration, Mean) of the same compound?
Answer: 13.9 ng/g

Question: What about the concentration at 0.25 h ([1]; brain, 0.25 h, read-out: brain calculated concentration, individual (Group 1-3)) of the same compound?
Answer: 10.8 ng/g

Question: What about the concentration at 1 h ([1]; brain, 1 h, BLQ assumed to be 0.0, read-out: brain calculated concentration, Mean) of the same compound?
Answer: 4.13 ng/g

Question: And the concentration at 1 h ([1]; brain, 1 h, read-out: brain calculated concentration, individual (Group 1-3))?
Answer: 6.21 ng/g

Question: What about the concentration at 0.25 h ([1]; plasma, 0.25 hr (15 min), read-out: plasma concentration, Mean) of the same compound?
Answer: 642 ng/mL

Question: And the concentration at 0.25 h ([1]; plasma, 0.25 hr, read-out: plasma concentration, individual (Group 1-3))?
Answer: 575 ng/mL

Question: And the concentration at 1 h ([1]; plasma, 1 hr, read-out: plasma concentration, Mean)?
Answer: 70.4 ng/mL

Question: And the concentration at 3 h ([1]; plasma, 3 hr, read-out: plasma concentration, Mean)?
Answer: 7.64 ng/mL

Question: And the concentration at 3 h ([1]; plasma, 3 hr, read-out: plasma concentration, individual (Group 1-3))?
Answer: 6.78 ng/mL

Question: And the “effect on spontaneous electrographic seizures” value (Tsc1^± mice; 14 mg/kg IP, male Tsc1^± mice P14–16, neocortical layers 2/3 and 4)?
Answer: significantly reduced spontaneous electrographic seizures

Question: What about the “effect on epileptic events” value (Tsc1^± mice; 28 mg/kg IP, male Tsc1^± mice P14–16) of the same compound?
Answer: epileptic events stopped immediately

Question: What about the “effect on number of epileptic events” value (Tsc1^± mice; murine model of TSC-induced epilepsy, abstract) of the same compound?
Answer: significantly reduced the number of epileptic events

Question: With `O=C(O)CCC(=O)N1N=C(c2c(-c3ccc(Cl)cc3)c3ccccc3[nH]c2=O)CC1c1ccc(Cl)cc1` (stereo not shown) [2a] as the compound, how does the “I 30 μM / I control GluN2C” value (GluN1/GluN2C) read?
Answer: 3.1 ± 0.6 (2,6) %

Reference: article PMC10485906, “Development of a Dihydroquinoline–Pyrazoline GluN2C/2D-Selective Negative Allosteric Modulator of the N-Methyl-D-aspartate Receptor” (ACS Chemical Neuroscience, 2023)
